Key:
[1] = tested on: blood cells (RBCs, WBCs, platelets) of T47D tumor bearing mice; assay: Experiment 1: blood cell counts in Cyp-treated T47D tumor bearing mice, last sample day 9; format: in vivo, mouse; settings: Cyp 120 mg/kg i.p. daily x6, PLAP 7.5 mg/kg s.c. days 0, 3, 6
Protocol: In the two experiments performed, first-generation hybrid BDF1 (C57BL/6 female×DBA/2 male) 10 weeks old adult female mice bearing T47D tumors (2.6-3.3 cm 3 volume) were used.
In the first group, mice received no treatment. In the second and third groups, mice were administered 120 mg/kg of cyclophosphamide (Cyp) intraperitoneally once a day for 6 consecutive days administered between 10-10.30 AM. In a third group, mice were also administered 7.5 mg/kg of PLAP subcutaneously on days 0, 3 and 6 between 9-9.30 AM. In each group, mice were kept on standard diet (˜15% fat, 65% carbohydrate, and 20% proteins) purchased from Charles River VRFI. Both PLAP (for the 3rd group) and Cyp were dissolved in physiological (0.9%) saline and injected in 50 μl volume. […] The data shown is the average of 6 independent determinations ±S.D.

[2] = tested on: bone marrow MSCs; assay: DNA synthesis ([3H]thymidine incorporation) in MSCs; format: cell-based, human; settings: 20 hours, no PLAP
Text: For the experiment, bone marrow aspirates were taken from normal human adult donors after informed consent. For the preparation of bone marrow MSCs, essentially a widely used technique was used as described earlier by others [Pittenger, M. F., Mackay, A. M., Beck, S. C., et al. (1999) Multilineage potential of adult human mesenchymal stem cells. Science 284, 143-147]. Briefly, nucleated cells were isolated with a pre-prepared commercial density gradient (Lymphoprep, Nycomed, Pharma, Oslo, Norway) and re-suspended in Dulbecco's modified Eagle's medium (DMEM) (GIBCO, Grand Island, NY) supplemented with 10% fetal calf serum (FCS), 50 U/ml of penicillin, and 50 μg/ml of streptomycin (GIBCO). All nucleated cells were plated in 25-cm^2 flasks (BD Falcon, Bedford, MA) at 37° C. in humidified atmosphere containing 5% CO2. After 24 hours, non-adherent cells were removed and cryopreserved in liquid nitrogen until use. The remaining adherent cells were thoroughly washed with Hanks balanced salt solution (HBSS) (GIBCO). Fresh complete culture medium was added and replaced every 3 or 4 days (twice a week). When cells grew to about 80% confluence, they were suspended and harvested by incubating with a ready-made solution containing 0.25% trypsin and 1 mM EDTA (Sigma-Aldrich, St. Louis, MO) for 5 minutes at 37° C.; this cell suspension is designated as passage 1. These cells were further expanded with 1:3-1:5 splitting in 175-cm^2 flasks (BD Falcon). For the determination of DNA synthesis, cells were divided into 12-well plates in the complete medium and let the cells grow to about 60% confluence. After changing the spent medium for fresh complete medium (i.e., containing 10% fetal calf serum), cells were treated for 20 hours with 20-100 μM ATP and/or 200 nM PLAP as well as 50-200 μM Cyp in the absence or presence of 200 nM PLAP. For labeling newly formed DNA, cells received 1,130,000 d.p.m. [^3H] thymidine for the last 4 hours of the treatment period. DNA synthesis was determined as described earlier [She, Q.-B., Mukherjee, J. J., Huang, J.-S., Crilly, K. S. and Kiss, Z. (2000) Growth factor-like effects of placental alkaline phosphatase in human fetus and mouse embryo fibroblasts. FEBS Lett. 469, 163-167]. The data is expressed as d.p.m. [^3H] thymidine incorporated into DNA/well (n=3).

O.O=P1(N(CCCl)CCCl)NCCCO1 (centres unmarked) [Cyp, 2-[Bis (2-chloroethyl)amino] tetrahydro-2H-1,3,2-oxazaphosphorine 2-oxide monohydrate]
Platelets ([1]; day 0): 1,114 ± 111 ×10^−3/μl
RBCs ([1]; day 0): 9.51 ± 1.09 ×10^−6/μl
WBCs ([1]; day 0): 7.92 ± 0.72 ×10^−3/μl
Platelets ([1]; day 3): 704 ± 98 ×10^−3/μl
RBCs ([1]; day 3): 7.28 ± 1.29 ×10^−6/μl
WBCs ([1]; day 3): 4.22 ± 0.85 ×10^−3/μl
Platelets ([1]; day 6): 404 ± 139 ×10^−3/μl
RBCs ([1]; day 6): 4.94 ± 0.63 ×10^−6/μl
WBCs ([1]; day 6): 2.73 ± 0.53 ×10^−3/μl
Platelets ([1]; day 9): 687 ± 114 ×10^−3/μl
RBCs ([1]; day 9): 6.26 ± 0.71 ×10^−6/μl
WBCs ([1]; day 9): 5.72 ± 0.49 ×10^−3/μl
d.p.m. [^3H] thymidine incorporated into DNA/well ([2]; Cyp 50 μM): 51,684 ± 2.772 d.p.m.
d.p.m. [^3H] thymidine incorporated into DNA/well ([2]; Cyp 200 μM): 32,536 ± 3,280 d.p.m.

— patent US20240165209A1, “PLACENTAL ALKALINE PHOSPHATASE FOR REDUCING THE LOSS OF RED BLOOD CELLS, WHITE BLOOD CELLS, AND PLATELETS IN CHEMOTHERAPY TREATED CANCER PATIENTS” (ZOLTAN LABORATORIES, LLC, priority 2021, published 2024)
